# Laboratory results taken from patent US8987471B2, “Substituted dihydropyrazoles as sphingosine receptor modulators” (Allergan, Inc., priority 2013, dated 2015).
# Molecular target: T1, human S1P1 receptor (Homo sapiens, UniProt P21453)
# T1 construct: expressed in transfected cells; membranes used
# Assay: GTP γ35S binding assay for S1P1 activity
# Type: biochemical
# Conditions: membranes of cells stably expressing the S1P1 receptor, test concentrations 0.08 to 5,000 nM
# Protocol: Compounds of the invention were tested for S1P1 activity using the GTP γ^35S binding assay. These compounds may be assessed for their ability to activate or block activation of the human S1P1 receptor in cells stably expressing the S1P1 receptor.
# GTP γ^355 binding was measured in the medium containing (mM) HEPES 25, pH 7.4, MgCl2 10, NaCl 100, dithiothreitol 0.5, digitonin 0.003%, 0.2 nM GTP γ^355, and 5 μg membrane protein in a volume of 150 μl. Test compounds were included in the concentration range from 0.08 to 5,000 nM unless indicated otherwise. Membranes were incubated with 100 μM 5′adenylylimidodiphosphate for 30 min, and subsequently with 10 μM GDP for 10 min on ice. Drug solutions and membrane were mixed, and then reactions were initiated by adding GTP γ^355 and continued for 30 min at 25° C. Reaction mixtures were filtered over Whatman GF/B filters under vacuum, and washed three times with 3 mL of ice-cold buffer (HEPES 25, pH 7.4, MgCl2 10 and NaCl 100). Filters were dried and mixed with scintillant, and counted for ^35S activity using a β-counter. Agonist-induced GTP γ^35S binding was obtained by subtracting that in the absence of agonist. Binding data were analyzed using a non-linear regression method. In case of antagonist assay, the reaction mixture contained 10 nM S1P in the presence of test antagonist at concentrations ranging from 0.08 to 5000 nM.
# T1 sequence (P21453 whole entry): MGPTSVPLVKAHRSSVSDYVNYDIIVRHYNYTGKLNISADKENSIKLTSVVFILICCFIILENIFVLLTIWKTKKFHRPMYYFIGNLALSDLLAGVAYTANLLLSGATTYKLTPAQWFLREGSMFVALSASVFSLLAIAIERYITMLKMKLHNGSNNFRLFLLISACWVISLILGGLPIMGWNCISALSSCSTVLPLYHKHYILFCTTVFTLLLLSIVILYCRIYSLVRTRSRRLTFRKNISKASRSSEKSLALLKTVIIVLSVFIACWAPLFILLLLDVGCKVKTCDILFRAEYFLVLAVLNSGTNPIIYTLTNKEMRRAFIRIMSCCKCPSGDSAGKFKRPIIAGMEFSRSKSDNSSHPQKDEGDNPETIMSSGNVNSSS
structure (smiles),measurement,value
"CCCN1N=C(COc2ccc(CNCCCP(=O)(O)O)cc2C)CC1c1ccccc1 (stereo not shown) [Compound 1, [3-({3-Methyl-4-[(5-phenyl-1-propyl-4,5-dihydro-1H-pyrazol-3-yl)methoxy]benzyl}amino)propyl]phosphonic acid]",EC50,57 nM
